Experiments:
[1] = Stability in rat microsomes assessed as parent compound remaining at 0.5 uM measured after 0.5 hrs; type: ADME, Microsome; details: read-out: Stability
[2] = Brain to blood partition coefficient, Kp of the compound in rat at 1 mg/kg, po administered as cassette dose; type: ADME, organism-based
[3] = Cmax in rat brain at 1 mg/kg, po administered as cassette dose; type: ADME, organism-based; set-up: dose 1 mg/kg, route oral
Mu-type opioid receptor [4] = biological target: T1, Mu-type opioid receptor (Homo sapiens, UniProt P35372); test: Displacement of [3H]-DAMGO from recombinant human mu-opioid receptor expressed in CHOK1 cells; type: cell-based
[5] = Oral bioavailability in rat at 1 mg/kg administered as cassette dose; type: ADME, organism-based; details: in vivo
[6] = biological target: T2, Delta-type opioid receptor (Homo sapiens, UniProt P41143); test: Displacement of [3H]-DADLE from recombinant human delta-opioid receptor expressed in HEK293 cells; type: cell-based
[7] = Stability in human microsomes assessed as parent compound remaining at 0.5 uM measured after 0.5 hrs; type: ADME, Microsome; details: read-out: Stability
[8] = Total clearance in rat at 1 mg/kg, po administered as cassette dose; type: ADME, organism-based; details: in vivo
[9] = Chemical stability of the compound; type: physicochemical
[10] = Stability in plasma (unknown origin) assessed as parent compound remaining after 24 hrs; type: ADME, cell-free; details: read-out: Stability
Rattus norvegicus [11] = test: Selectivity ratio of ED50 for inhibition of morphine-induced analgesia in po dosed rat to ED50 for inhibition of morphine-induced constipation in po dosed rat; type: functional
Mustela putorius furo [12] = test: In vivo antagonist activity at mu-opioid receptor in po dosed ferret assessed as inhibition of morphine-induced emesis/vomiting; type: functional
[13] = biological target: T2, Delta-type opioid receptor; test: Antagonist activity at delta-opioid receptor (unknown origin) by [35S]-GTPgammaS binding assay; type: functional
Rattus norvegicus [14] = organism: Rattus norvegicus; test: […]; type: functional; details: po
Mu-type opioid receptor [15] = biological target: T1, Mu-type opioid receptor; test: Antagonist activity at mu-opioid receptor (unknown origin) by [35S]-GTPgammaS binding assay; type: functional
Rattus norvegicus [16] = test: Antianalgesic activity in po dosed rat assessed as inhibition of morphine-induced analgesia by tail-flick test; type: functional
[17] = Selectivity ratio of ED50 for inhibition of morphine-induced analgesia in po dosed rat to ED50 for inhibition of morphine-induced emesis/vomiting in po dosed ferret; type: functional
[18] = Drug metabolism assessed as formation of 14-O-acyl form and 7-acyl form mixture
Rattus norvegicus [19] = test: In vivo antagonist activity at […] in sc dosed rat assessed as inhibition of morphine-induced constipation; type: functional
Mustela putorius furo [20] = test: In vivo antagonist activity at mu-opioid receptor in sc dosed ferret assessed as inhibition of morphine-induced emesis/vomiting; type: functional

T1 sequence (P35372 whole entry): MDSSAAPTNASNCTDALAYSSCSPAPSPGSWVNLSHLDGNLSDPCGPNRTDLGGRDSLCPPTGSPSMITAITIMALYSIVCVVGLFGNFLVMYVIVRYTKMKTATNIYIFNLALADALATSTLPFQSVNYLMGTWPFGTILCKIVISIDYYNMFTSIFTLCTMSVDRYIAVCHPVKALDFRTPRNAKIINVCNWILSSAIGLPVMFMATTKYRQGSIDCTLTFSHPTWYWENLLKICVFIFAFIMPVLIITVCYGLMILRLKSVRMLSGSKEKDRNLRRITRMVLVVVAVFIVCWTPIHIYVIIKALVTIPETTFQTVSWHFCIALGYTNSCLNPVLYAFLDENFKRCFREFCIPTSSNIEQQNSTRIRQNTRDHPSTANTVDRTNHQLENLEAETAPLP
T2 sequence (P41143 whole entry): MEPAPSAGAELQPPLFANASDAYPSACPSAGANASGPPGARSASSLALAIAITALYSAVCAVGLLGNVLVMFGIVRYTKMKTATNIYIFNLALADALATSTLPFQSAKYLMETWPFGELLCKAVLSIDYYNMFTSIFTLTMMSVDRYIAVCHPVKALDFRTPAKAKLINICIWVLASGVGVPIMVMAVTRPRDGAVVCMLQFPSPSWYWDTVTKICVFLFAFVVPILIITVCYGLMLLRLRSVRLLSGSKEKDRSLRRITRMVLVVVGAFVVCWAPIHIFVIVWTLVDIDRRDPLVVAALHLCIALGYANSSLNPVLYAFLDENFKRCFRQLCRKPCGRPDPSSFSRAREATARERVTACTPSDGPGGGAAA

Compound | remaining at 0.5 h, 0.5 µM [1] [%] | Kp [2] | Cmax [3] [ng/mL] | Ki (Mu-type opioid receptor [4]) [nM] | bioavailability [5] [%] | Ki [6] [nM] | remaining at 0.5 h, 0.5 µM [7] [%] | CL/F [8] [mL/min/kg] | Stability [9] | remaining at 24 h [10] [%] | Ratio ED50 (Rattus norvegicus [11]) | ED50 (Mustela putorius furo [12]) [mg/kg] | Ke [13] [nM] | ED50 (Rattus norvegicus [14]) [mg/kg] | Ke (Mu-type opioid receptor [15]) [nM] | ED50 (Rattus norvegicus [16]) [mg/kg] | Ratio ED50 [17] | Drug metabolism [18] | ED50 (Rattus norvegicus [19]) [mg/kg] | ED50 (Mustela putorius furo [20]) [mg/kg]
N#Cc1ccc(NC(=O)C2=C(O)[C@@H]3Oc4c(O)ccc5c4[C@@]34CCN(CC3CC3)[C@H](C5)[C@]4(O)C2)cc1 | 92 | 0.03 | 1.3 | 5.1 | 12 | 11.1 | 103 | 8.5 | Stable | > 80 |  |  |  |  |  |  |  |  |  | 
O=C(O)c1ccc2c3c([nH]c2c1)[C@@H]1Oc2c(O)ccc4c2[C@@]12CCN(CC1CC1)[C@H](C4)[C@]2(O)C3 | 97 | 0.03 | 0.023 | 18 | 0.1 | 0.62 | 98 | 71.8 |  |  |  |  |  |  |  |  |  |  |  | 
C[C@H](CO)NC(=O)C1=C(O)[C@@H]2Oc3c(O)ccc4c3[C@@]23CCN(CC2CC2)[C@H](C4)[C@]3(O)C1 |  | 0.05 | 0.21 | 19.4 | 3.4 | 18 |  | 27 | Stable | > 80 |  |  |  |  |  |  |  |  |  | 
CC(C)(NC(=O)C1=C(O)[C@@H]2Oc3c(O)ccc4c3[C@@]23CCN(CC2CC2)[C@H](C4)[C@]3(O)C1)C(=O)NS(C)(=O)=O | 99 | 0.01 | 0.018 | 93.6 | 0.77 | 5.5 | 104 | 15 | Stable | > 80 |  |  |  |  |  |  |  |  |  | 
Cc1noc(C(C)(C)NC(=O)C2=C(O)[C@@H]3Oc4c(O)ccc5c4[C@@]34CCN(CC3CC3)[C@H](C5)[C@]4(O)C2)n1 | 99 | 0.04 | 0.29 | 7.3 | 11 | 5.8 | 92 | 29 | Stable | > 80 |  |  |  |  |  |  |  |  |  | 
COC(=O)C1(NC(=O)C2=C(O)[C@@H]3Oc4c(O)ccc5c4[C@@]34CCN(CC3CC3)[C@H](C5)[C@]4(O)C2)CC1 | 103 | 0.06 | 1.3 | 1.6 | 11 | 9.8 | 100 | 30 | Stable | > 80 | >175 | 0.026 | 7.6 | 0.57 | 4.1 | > 100 | >3846 |  |  | 
CC(C)NC(=O)C1=C(O)[C@@H]2Oc3c(O)ccc4c3[C@@]23CCN(CC2CC2)[C@H](C4)[C@]3(O)C1 | 88 |  |  | 3.4 to 5.2 | 50 | 2 to 7.4 | 95 | 41 | Stable | > 80 | 19 | 0.04 | 3.8 | 0.57 | 6.2 | 10.7 | 266 |  |  | 
O=C(C1=C(O)[C@@H]2Oc3c(O)ccc4c3[C@@]23CCN(CC2CC2)[C@H](C4)[C@]3(O)C1)N1CCCC1 | 24 | 0.22 | 3 | 4 | 18 | 7.4 | 99 | 102 | Stable | > 80 |  |  |  |  |  |  |  |  |  | 
CC(C)(NC(=O)C1=C(O)[C@@H]2Oc3c(O)ccc4c3[C@@]23CCN(CC2CC2)[C@H](C4)[C@]3(O)C1)C(=O)O |  | 0.04 | 0.055 | 46.1 | 0.52 | 11.8 |  | 28 | Stable | > 80 |  |  |  |  |  |  |  |  |  | 
CCC(=O)C1=C(O)[C@@H]2Oc3c(O)ccc4c3[C@@]23CCN(CC2CC2)[C@H](C4)[C@]3(O)C1 | 46 | 1.7 | 6.5 | 1.4 | 6.4 | 9.9 | 85 | 313 |  | < 20 |  |  |  |  |  |  |  | Metabolite detected |  | 
O=C(Nc1ccc2cc[nH]c2c1)C1=C(O)[C@@H]2Oc3c(O)ccc4c3[C@@]23CCN(CC2CC2)[C@H](C4)[C@]3(O)C1 | 86 | 0.04 | 0.56 | 2.4 | 13 | 18.9 | 93 | 28 | Stable | > 80 |  |  |  |  |  |  |  |  |  | 
COC(=O)C(C)(C)NC(=O)C1=C(O)[C@@H]2Oc3c(O)ccc4c3[C@@]23CCN(CC2CC2)[C@H](C4)[C@]3(O)C1 | 103 | 0.08 | 5.1 | 16.5 | 68 | 3.99 | 101 | 25 | Stable | > 80 |  |  |  |  |  |  |  |  |  | 
Cc1nc(N)nc2c1C[C@@]1(O)[C@H]3Cc4ccc(O)c5c4[C@@]1(CCN3CC1CC1)[C@H]2O5 | 58 | 0.31 | 4.6 | 8.6 | 42.5 | 2.1 | 92 | 220 |  |  |  |  |  |  |  |  |  |  |  | 
CC(C)(NC(=O)C1=C(O)[C@@H]2Oc3c(O)ccc4c3[C@@]23CCN(CC2CC2)[C@H](C4)[C@]3(O)C1)c1nc(-c2ccccc2)no1 [NALDEMEDINE] | 76 | 0.03 | 1.3 | 1.1 to 1.13 | 29 | 0.91 | 73 | 20 | Stable | > 80 | >500 | 0.03 | 0.37 | 0.03 | 0.05 | > 30 | >1000 |  |  | 
O=C(O)c1ccc2c3c([nH]c2c1Cl)[C@@H]1Oc2c(O)ccc4c2[C@@]12CCN(CC1CC1)[C@H](C4)[C@]2(O)C3 | 100 | 0.03 | 0.032 | 19 | 0.2 | 1 | 97 | 18.1 |  |  |  |  |  |  |  |  |  |  |  | 
CC(=O)C1=C(O)[C@@H]2Oc3c(O)ccc4c3[C@@]23CCN(CC2CC2)[C@H](C4)[C@]3(O)C1 | 80 | 1.1 | 5.8 | 0.95 | 4 | 31 | 95 | 233 |  | < 20 |  |  |  |  |  |  |  | Metabolite detected |  | 
Cc1n[nH]c2c1C[C@@]1(O)[C@H]3Cc4ccc(O)c5c4[C@@]1(CCN3CC1CC1)[C@H]2O5 | 81 | 0.25 | 2.2 | 24 | 26.9 | 1.2 | 98 | 199 |  |  |  |  |  |  |  |  |  |  |  | 
O=C(Nc1ccccc1)C1=C(O)[C@@H]2Oc3c(O)ccc4c3[C@@]23CCN(CC2CC2)[C@H](C4)[C@]3(O)C1 | 78 |  |  | 1 to 4.1 | 57 | 6.8 to 20 | 89 | 36 | Stable | > 80 | 17 | 0.04 | 3.6 | 0.99 | 3.2 | 16.5 | 413 |  |  | 
O=C(Nc1ccccn1)C1=C(O)[C@@H]2Oc3c(O)ccc4c3[C@@]23CCN(CC2CC2)[C@H](C4)[C@]3(O)C1 | 97 | 0.05 | 5.6 | 9.8 | 55 | 6.8 | 98 | 25 | Stable | > 80 |  |  |  |  |  |  |  |  |  | 
O=C(NCc1ccccc1)C1=C(O)[C@@H]2Oc3c(O)ccc4c3[C@@]23CCN(CC2CC2)[C@H](C4)[C@]3(O)C1 | 14 | 0.17 | 12 | 1.1 | 46 | 16 | 94 | 61 | Stable | > 80 |  |  |  |  |  |  |  |  |  | 
C[N@+]1(CC2CC2)CC[C@]23c4c5ccc(O)c4O[C@H]2C(=O)CC[C@@]3(O)[C@H]1C5.[Br-] [METHYLNALTREXONE BROMIDE] |  |  |  |  |  |  |  |  |  |  |  |  | 1080 |  | 56 |  |  |  | 4.5 | 0.69

Source: ChEMBL document CHEMBL4308867, “Discovery of naldemedine: A potent and orally available opioid receptor antagonist for treatment of opioid-induced adverse effects” (Bioorg Med Chem Lett, 2019)
